{"source": "patent EP0365134A1", "about": "“Synergistic compositions of renal dopaminergic agent and angiotensin converting enzyme inhibitors” (priority 1988, dated 1990)", "experiment": "Renal clearance study in unanesthetized dogs: effective renal plasma flow (PAH clearance) and glomerular filtration rate (creatinine clearance)", "type": "in vivo", "settings": "alone", "method": "A modification of the renal function protocol, described in the prior art, was used for renal clearance studies in adult, trained, unanesthetized, fasted, female mongrel dogs, lightly restrained on their backs on a cradle-like board constructed specifically for this purpose. […] All dogs were given an oral water load of 500 ml of tap water thirty minutes prior to initiation of the study. […] Suitable plasma levels of creatinine and p-aminohippuric acid were obtained by a thirty minute infusion of this solution prior to starting of the initial urine collection (U₁) In addition, 1.5 ml/kg of a 1% creatinine solution in phosphate buffer was injected intravenously fifteen minutes prior to collection of U₁. Replicate urine collections were obtained at ten minute intervals throughout the experiment. The bladder was emptied by an indwelling catheter and complete urine collections were assured by rinsing the bladder with 10 mls of warm water at the end of each collection interval. This procedure was followed by an air washout. Venous blood samples were drawn from an indwelling catheter at the mid-point of each clearance period. Urine volumes were recorded at the time of collection. Plasma and urine samples were stored frozen, after collection, until analyzed. Analyses for creatinine and p-aminohippuric acid were made, by colorimetry, using standard AutoAnalyzer methodologies. These analyses were made simultaneously on each sample. Peak intensities were identified electronically, recorded on \"on-line\" teletype, stored and subsequently analyzed mathematically by time-shared computer against appropriate standards. Data were computed from linear least square regression lines, and quality control standards were analyzed simultaneously to evaluate system reproducibility and reliability. The bladder was emptied upon beginning the study and three control clearances (U₁-U₃, Phase 1) were obtained. […] Post-drug clearance C₄-C₆, C₇-C₉, C₁₀-C₁₂ (Phases II, III and IV) were collected immediately, with no delay between C₃ and C₄. […] Four dogs were used for each treatment. All compounds were weighed as free base content."}
{"smiles": "CS(=O)(=O)O.Oc1ccc(C2CNCCc3c2cc(O)c(O)c3Cl)cc1", "note": "(centres unmarked) [Fenoldopam, 6-Chloro-7,8-dihydroxy-1-(4-hydroxyphenyl)-2,3,4,5-tetrahydro-1H-3-benzazepine methyl sulfonate]", "values": [{"measurement": "ERPF ( % from control)", "setting": "Fenoldopam 2.5 mg/kg orally", "value": "34 ± 5", "unit": "% from control"}, {"measurement": "GFR ( % from control)", "setting": "Fenoldopam 2.5 mg/kg orally", "value": "-2 ± 2", "unit": "% from control"}, {"measurement": "ERPF ( % from control)", "setting": "Fenoldopam 5.0 mg/kg orally", "value": "47 ± 16", "unit": "% from control"}, {"measurement": "GFR ( % from control)", "setting": "Fenoldopam 5.0 mg/kg orally", "value": "6 ± 5", "unit": "% from control"}, {"measurement": "ERPF ( % from control)", "setting": "Fenoldopam 10 mg/kg orally", "value": "30 ± 2", "unit": "% from control"}, {"measurement": "GFR ( % from control)", "setting": "Fenoldopam 10 mg/kg orally", "value": "-1 ± 2", "unit": "% from control"}, {"measurement": "ERPF ( % from control)", "setting": "Fenoldopam 20 mg/kg orally", "value": "44 ± 15", "unit": "% from control"}, {"measurement": "GFR ( % from control)", "setting": "Fenoldopam 20 mg/kg orally", "value": "1 ± 3", "unit": "% from control"}]}
